{"source": "patent US20250073217A1", "about": "(priority 2022, published 2025)", "key": {"μ (MOP) (h) [1]": {"target": "T1, μ (MOP) (h) (Homo sapiens, UniProt P35372)", "T1 sequence (P35372 whole entry)": "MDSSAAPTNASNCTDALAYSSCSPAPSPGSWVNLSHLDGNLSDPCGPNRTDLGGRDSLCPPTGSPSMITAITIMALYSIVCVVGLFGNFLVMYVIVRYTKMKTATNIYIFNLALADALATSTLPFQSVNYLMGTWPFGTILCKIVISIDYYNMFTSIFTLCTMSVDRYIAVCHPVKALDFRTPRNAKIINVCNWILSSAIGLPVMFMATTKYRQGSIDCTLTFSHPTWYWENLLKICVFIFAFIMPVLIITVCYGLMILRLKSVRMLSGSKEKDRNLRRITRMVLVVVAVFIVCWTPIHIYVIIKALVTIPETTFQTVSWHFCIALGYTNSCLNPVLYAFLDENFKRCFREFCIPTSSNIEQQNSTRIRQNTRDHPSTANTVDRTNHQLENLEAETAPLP", "assay_type": "binding"}, "κ (KOP)": {"target": "κ (KOP) (Rattus norvegicus, UniProt P34975)", "sequence (P34975 whole entry)": "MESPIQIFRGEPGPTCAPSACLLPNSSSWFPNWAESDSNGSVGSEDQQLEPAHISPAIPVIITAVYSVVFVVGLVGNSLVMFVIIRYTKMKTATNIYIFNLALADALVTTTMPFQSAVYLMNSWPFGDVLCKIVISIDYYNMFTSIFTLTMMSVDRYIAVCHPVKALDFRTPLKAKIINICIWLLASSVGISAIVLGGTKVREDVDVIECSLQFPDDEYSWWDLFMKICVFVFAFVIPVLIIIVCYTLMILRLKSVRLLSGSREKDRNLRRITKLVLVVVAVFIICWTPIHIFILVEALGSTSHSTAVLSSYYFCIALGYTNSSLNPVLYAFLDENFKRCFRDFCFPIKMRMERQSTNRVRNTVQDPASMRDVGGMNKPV", "assay_type": "binding"}, "α2B(h)": {"target": "T2, α2B(h) (Homo sapiens, UniProt P18089)", "T2 sequence (P18089 1-450)": "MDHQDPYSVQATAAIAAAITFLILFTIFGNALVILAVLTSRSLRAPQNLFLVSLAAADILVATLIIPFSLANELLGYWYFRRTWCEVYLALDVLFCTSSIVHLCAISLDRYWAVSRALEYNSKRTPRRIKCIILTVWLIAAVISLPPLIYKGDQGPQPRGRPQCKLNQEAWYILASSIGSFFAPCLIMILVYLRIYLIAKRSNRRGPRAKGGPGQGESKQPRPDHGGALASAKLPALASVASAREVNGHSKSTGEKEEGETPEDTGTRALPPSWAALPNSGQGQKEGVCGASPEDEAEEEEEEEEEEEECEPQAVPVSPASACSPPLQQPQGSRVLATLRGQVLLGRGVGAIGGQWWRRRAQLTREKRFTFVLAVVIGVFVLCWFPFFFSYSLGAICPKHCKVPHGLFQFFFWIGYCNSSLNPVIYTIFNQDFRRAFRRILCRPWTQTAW", "assay_type": "binding"}, "MDR1-MDCK cells": {"test_system": "MDR1-MDCK cells", "assay": "MDR1-MDCK Permeability and Identification of P-gp Substrate (Bi-directional)", "assay_type": "in vitro ADME, canine", "conditions": "for efflux ratio: minus inhibitor (absence of cyclosporin A)", "method": "MDR1-MDCK Permeability and Identification of P-gp Substrate (Bi-directional): Madin-Darby canine kidney (MDCK) cells are an epithelial cell line of canine kidney origin. These cells can be stably transfected to express active P-glycoprotein (MDR1-MDCK) and are ideal for studying drug efflux. Test compound was added to either the apical or basolateral side of a confluent monolayer of MDR1-MDCK cells and permeability was measured by monitoring the appearance of the test compound on the opposite side of the monolayer using LC-MS/MS. The efflux ratio (ER) was calculated from the ratio of B-A and A-B permeabilities. Experiments were performed in the absence and presence of a P-glycoprotein (P-gp) inhibitor (cyclosporin A (10 μM)) to determine whether the compound was subject to P-gp mediated efflux.\nExperimental Procedure: MDR1-MDCK cells obtained from the NIH (Rockville, MD, USA) were used between passage numbers 6-30. Cells were seeded onto Millipore Multiscreen Transwell plates at 3.4×10^5 cells/cm^2. The cells were cultured in DMEM and media was changed on day 3. On day 4 the permeability study was performed. Cell culture and assay incubations were carried out at 37° C. in an atmosphere of 5% CO2 with a relative humidity of 95%. […]\nThe dosing solutions were prepared by diluting test compound with assay buffer to give a final test compound concentration of 10 μM (final DMSO concentration of 1% v/v). […] Test compound permeability was measured on two occasions, in the absence and in the presence of a P-gp inhibitor on both sides of the monolayer. […]\nFor assessment of A-B permeability. […] Test compound permeability was assessed in duplicate. […] Test and control compounds were quantified by LC-MS/MS cassette analysis using an 8-point calibration with appropriate dilution of the samples. […] The starting concentration (C0) was determined from the dosing solution and the experimental recovery calculated from C0 and both apical and basolateral compartment concentrations. […]"}, "δ2 (DOP) (h)": {"target": "δ2 (DOP) (h) (Homo sapiens, UniProt P41143)", "sequence (P41143 whole entry)": "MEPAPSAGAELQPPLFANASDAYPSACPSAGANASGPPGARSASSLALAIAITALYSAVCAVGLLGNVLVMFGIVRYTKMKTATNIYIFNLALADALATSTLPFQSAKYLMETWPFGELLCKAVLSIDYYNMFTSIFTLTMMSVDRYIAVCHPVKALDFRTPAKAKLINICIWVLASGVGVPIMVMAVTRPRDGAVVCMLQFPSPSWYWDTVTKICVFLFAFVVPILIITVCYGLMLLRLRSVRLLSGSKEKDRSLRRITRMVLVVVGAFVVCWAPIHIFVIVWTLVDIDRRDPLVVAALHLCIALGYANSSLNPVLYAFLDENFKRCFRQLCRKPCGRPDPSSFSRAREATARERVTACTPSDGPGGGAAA", "assay_type": "binding"}, "μ (MOP) (h) [2]": {"target": "T1, μ (MOP) (h)", "assay_type": "cell-based"}, "CYP3A4 [3]": {"test_system": "CYP3A4", "conditions": "human hepatocytes, 72 hr, 0.4-100 μM, any concentration tested"}, "[4]": {"assay": "Brain Tissue Binding, equilibrium dialysis, mouse", "conditions": "fraction unbound could not be determined"}, "CYP1A2 [5]": {"target": "CYP1A2 (Homo sapiens, UniProt P05177)", "sequence (P05177 whole entry)": "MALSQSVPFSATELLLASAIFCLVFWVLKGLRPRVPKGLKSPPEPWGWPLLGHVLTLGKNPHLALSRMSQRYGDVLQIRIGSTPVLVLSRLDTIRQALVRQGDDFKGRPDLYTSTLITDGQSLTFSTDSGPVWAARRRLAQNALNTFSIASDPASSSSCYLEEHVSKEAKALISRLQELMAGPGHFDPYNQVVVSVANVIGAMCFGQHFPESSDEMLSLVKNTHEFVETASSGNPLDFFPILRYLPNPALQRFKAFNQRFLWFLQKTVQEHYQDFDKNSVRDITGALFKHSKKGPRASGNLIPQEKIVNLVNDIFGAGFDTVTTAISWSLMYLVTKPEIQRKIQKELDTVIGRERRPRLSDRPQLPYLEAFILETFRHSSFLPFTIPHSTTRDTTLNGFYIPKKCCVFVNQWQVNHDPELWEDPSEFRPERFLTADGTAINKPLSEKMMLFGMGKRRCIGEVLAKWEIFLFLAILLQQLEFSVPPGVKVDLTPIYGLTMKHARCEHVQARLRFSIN", "conditions": "0.1 μM-25 μM, human liver microsomes"}, "CYP2C9": {"target": "CYP2C9 (Homo sapiens, UniProt P11712)", "sequence (P11712 whole entry)": "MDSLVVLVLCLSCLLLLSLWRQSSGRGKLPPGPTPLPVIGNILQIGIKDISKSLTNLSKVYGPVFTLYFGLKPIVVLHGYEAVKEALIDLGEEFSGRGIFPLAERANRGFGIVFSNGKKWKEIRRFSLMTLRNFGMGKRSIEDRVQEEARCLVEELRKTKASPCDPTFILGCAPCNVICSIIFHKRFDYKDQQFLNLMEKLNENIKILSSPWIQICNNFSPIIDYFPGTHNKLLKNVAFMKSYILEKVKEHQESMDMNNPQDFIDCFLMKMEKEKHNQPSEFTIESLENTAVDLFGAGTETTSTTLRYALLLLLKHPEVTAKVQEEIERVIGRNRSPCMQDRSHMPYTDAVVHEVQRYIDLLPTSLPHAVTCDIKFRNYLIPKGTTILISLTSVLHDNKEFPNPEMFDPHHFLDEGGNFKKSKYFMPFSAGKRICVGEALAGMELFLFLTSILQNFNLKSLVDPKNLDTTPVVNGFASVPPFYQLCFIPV", "assay": "CYP2C9 Inhibition, human liver microsomes, tolbutamide", "conditions": "0.1 μM-25 μM"}, "[6]": {"assay": "Bioavailability and Stability", "assay_type": "in vitro ADME", "excerpt": "Bioavailability and Stability: Compounds of the invention were studied in detail, using several parameters to evaluate bioavailability and stability."}, "Caco-2 cells": {"test_system": "Caco-2 cells", "assay": "Caco-2 Permeability (A-B or Bi-directional)"}, "CYP2C8": {"target": "CYP2C8 (Homo sapiens, UniProt P10632)", "sequence (P10632 whole entry)": "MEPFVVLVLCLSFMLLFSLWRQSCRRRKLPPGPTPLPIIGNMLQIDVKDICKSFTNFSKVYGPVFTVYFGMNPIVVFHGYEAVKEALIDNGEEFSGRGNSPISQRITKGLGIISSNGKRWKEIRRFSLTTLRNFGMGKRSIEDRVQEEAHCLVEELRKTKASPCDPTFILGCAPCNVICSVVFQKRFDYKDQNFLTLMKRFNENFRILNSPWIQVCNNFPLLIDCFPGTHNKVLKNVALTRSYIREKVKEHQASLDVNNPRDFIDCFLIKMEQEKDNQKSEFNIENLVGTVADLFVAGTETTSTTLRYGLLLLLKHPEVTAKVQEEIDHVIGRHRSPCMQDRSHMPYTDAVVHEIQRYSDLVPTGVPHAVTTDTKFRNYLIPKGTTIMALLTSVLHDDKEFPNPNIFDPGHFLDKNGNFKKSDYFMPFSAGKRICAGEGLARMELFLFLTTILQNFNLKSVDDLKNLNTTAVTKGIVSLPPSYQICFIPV", "assay": "CYP2C8 Inhibition, human liver microsomes, paclitaxel", "conditions": "0.1 μM-25 μM"}, "CYP2D6": {"target": "T3, CYP2D6 (Homo sapiens, UniProt P10635)", "T3 construct": "from tissue", "T3 sequence (P10635 whole entry)": "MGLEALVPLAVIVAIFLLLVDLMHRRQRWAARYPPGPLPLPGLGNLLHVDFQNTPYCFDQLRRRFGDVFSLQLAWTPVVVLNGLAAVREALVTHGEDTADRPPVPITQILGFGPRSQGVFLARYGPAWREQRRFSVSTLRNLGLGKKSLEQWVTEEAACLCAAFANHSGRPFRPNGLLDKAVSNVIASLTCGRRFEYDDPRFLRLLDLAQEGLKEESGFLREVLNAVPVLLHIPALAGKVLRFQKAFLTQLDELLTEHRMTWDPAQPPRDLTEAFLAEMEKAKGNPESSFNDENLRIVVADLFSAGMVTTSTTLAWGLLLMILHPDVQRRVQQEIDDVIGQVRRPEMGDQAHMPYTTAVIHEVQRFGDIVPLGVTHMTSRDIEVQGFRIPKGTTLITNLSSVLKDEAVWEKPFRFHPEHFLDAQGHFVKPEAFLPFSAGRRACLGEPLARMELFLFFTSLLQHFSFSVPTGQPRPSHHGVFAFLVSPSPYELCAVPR", "assay": "Time Dependent Inhibition of CYP2D6 (Dextromethorphan; IC50 Shift)", "assay_type": "in vitro ADME", "conditions": "for CYP2D6 inhibition: at 25 μM", "method": "The probe substrate dextromethorphan (5 μM) and NADPH (1 mM) were then added (final DMSO concentration 0.3%) and the samples incubated for 5 min at 37° C. The selective time dependent CYP2D6 inhibitor, paroxetine, was screened alongside the test compounds as a positive control. The reactions were terminated by the addition of an aliquot of the incubation into methanol. The samples were centrifuged at 2500 rpm for 30 min at 4° C., and aliquots of the supernatant are diluted with formic acid in deionised water (final concentration 0.1%) containing internal standard prior to analysis of dextrorphan by LC-MS/MS."}, "CYP3A4 [7]": {"target": "T4, CYP3A4 (Homo sapiens, UniProt P08684)", "T4 sequence (P08684 whole entry)": "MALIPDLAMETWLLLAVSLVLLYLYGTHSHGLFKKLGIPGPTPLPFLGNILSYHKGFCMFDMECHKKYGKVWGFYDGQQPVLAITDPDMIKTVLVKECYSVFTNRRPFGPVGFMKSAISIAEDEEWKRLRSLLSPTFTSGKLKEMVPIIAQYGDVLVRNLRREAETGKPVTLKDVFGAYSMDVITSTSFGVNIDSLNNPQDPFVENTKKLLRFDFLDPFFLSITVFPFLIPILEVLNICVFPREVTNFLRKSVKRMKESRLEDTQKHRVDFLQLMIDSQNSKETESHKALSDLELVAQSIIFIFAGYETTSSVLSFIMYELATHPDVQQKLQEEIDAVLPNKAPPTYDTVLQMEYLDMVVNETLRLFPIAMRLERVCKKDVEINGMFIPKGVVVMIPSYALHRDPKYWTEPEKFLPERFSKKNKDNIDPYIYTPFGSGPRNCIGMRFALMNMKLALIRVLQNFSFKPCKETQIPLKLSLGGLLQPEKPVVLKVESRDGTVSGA", "conditions": "0.1 μM-25 μM, human liver microsomes, substrate testosterone"}, "[8]": {"assay": "Brain Tissue Binding, equilibrium dialysis, rat", "conditions": "brain homogenate"}, "CD-1 mice [9]": {"test_system": "CD-1 mice", "assay": "Mice conditioned place preference (CPP) chamber test", "assay_type": "in vivo", "conditions": "Compound 1 10 mg/kg IP, 10 minutes later Morphine 10 mg/kg SC, versus Morphine alone; FIG. 1"}, "[10]": {"test_system": "L-DOPA induced dyskinesias", "assay": "L-DOPA induced dyskinesias, Rodent in vivo model"}, "plasma proteins": {"test_system": "plasma proteins", "assay": "Binding to plasma proteins", "assay_type": "in vitro ADME"}, "[11]": {"test_system": "L-DOPA induced dyskinesias", "assay": "L-DOPA induced dyskinesias, Primate in vivo model"}, "CYP3A4 [12]": {"target": "T4, CYP3A4", "conditions": "0.1 μM-25 μM, human liver microsomes, substrate midazolam"}, "hERG potassium channel": {"target": "hERG potassium channel (Homo sapiens, UniProt Q12809)", "assay": "hERG Channel Inhibition (IC50 Determination), IonWorks automated patch clamp, CHO cells"}, "CYP2B6 [13]": {"test_system": "CYP2B6", "conditions": "human hepatocytes, 72 hr, at 100 μM"}, "animal models": {"test_system": "animal models", "assay": "Toxicity in animal models", "assay_type": "in vivo", "conditions": "many animal models, even at high concentrations", "excerpt": "Toxicity: The Compound 1 was studied for its toxicity in many animal models."}, "CYP1A2 [14]": {"test_system": "CYP1A2", "conditions": "human hepatocytes, 72 hr, 0.4-100 μM, any concentration tested"}, "CD-1 mice [15]": {"test_system": "CD-1 mice", "assay": "Mouse Tail Flick Test", "assay_type": "in vivo", "conditions": "compound 1 10 mg/kg IP, 10 minutes later Morphine 10 mg/kg SC, versus Morphine alone; FIGS. 2A-2C"}, "CYP2B6 [16]": {"target": "CYP2B6 (Homo sapiens, UniProt P20813)", "sequence (P20813 whole entry)": "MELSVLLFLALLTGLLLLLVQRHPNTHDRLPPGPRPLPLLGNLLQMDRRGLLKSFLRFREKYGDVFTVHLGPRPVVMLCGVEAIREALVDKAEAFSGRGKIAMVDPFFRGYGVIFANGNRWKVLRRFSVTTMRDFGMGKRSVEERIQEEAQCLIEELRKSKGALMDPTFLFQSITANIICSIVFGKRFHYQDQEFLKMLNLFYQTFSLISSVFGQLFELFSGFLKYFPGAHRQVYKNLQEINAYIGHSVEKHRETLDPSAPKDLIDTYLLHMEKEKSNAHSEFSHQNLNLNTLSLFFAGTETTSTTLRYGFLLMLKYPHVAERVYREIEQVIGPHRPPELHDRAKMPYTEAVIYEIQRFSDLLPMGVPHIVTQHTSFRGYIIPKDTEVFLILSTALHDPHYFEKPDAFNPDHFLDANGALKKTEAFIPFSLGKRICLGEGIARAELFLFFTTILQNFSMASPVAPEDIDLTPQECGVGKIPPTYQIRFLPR", "conditions": "0.1 μM-25 μM, human liver microsomes"}}, "note": "Read-outs that look alike come from different tables or passages of the source.", "data": [{"smiles": "CCC(=O)NC1CCN(CCC(=O)OC)CC1", "note": "[Methyl 3-(4-propionamidopiperidin-1-yl) propanoate]", "values": [{"measurement": "nH", "setting": "μ (MOP) (h) [1]", "result": 0.5}, {"measurement": "nH", "setting": "κ (KOP)", "result": 0.8}, {"measurement": "nH", "setting": "α2B(h)", "result": 1}]}, {"smiles": "COc1cc2nc(N3CCN(C(=O)c4ccco4)CC3)nc(N)c2cc1OC", "note": "[prazosin, reference compound]", "values": [{"measurement": "efflux ratio", "setting": "MDR1-MDCK cells", "result": "showing efflux"}]}, {"smiles": "O=C(NC1CCN(CCc2ccccc2)CC1)c1ccccc1", "note": "[N-(1-phenethylpiperidin-4-yl)benzamide]", "values": [{"measurement": "nH", "setting": "μ (MOP) (h) [1]", "result": 0.9}, {"measurement": "nH", "setting": "κ (KOP)", "result": 0.6}, {"measurement": "nH", "setting": "δ2 (DOP) (h)", "result": 0.7}, {"measurement": "nH", "setting": "α2B(h)", "result": 1.3}]}, {"smiles": "O=C(NC1CCN(CCc2ccccc2)CC1)c1ccoc1", "note": "[N-(1-phenethylpiperidin-4-yl)furan-3-carboxamide]", "values": [{"measurement": "nH", "setting": "μ (MOP) (h) [1]", "result": 0.8}, {"measurement": "nH", "setting": "κ (KOP)", "result": 1.1}, {"measurement": "nH", "setting": "δ2 (DOP) (h)", "result": 1}, {"measurement": "nH", "setting": "α2B(h)", "result": 0.7}]}, {"smiles": "O=C(CCCCCCCBr)NC1CCN(CCc2ccccc2)CC1", "note": "[8-bromo-N-(1-phenethylpiperidin-4-yl)octanamide]", "values": [{"measurement": "nH", "setting": "μ (MOP) (h) [2]", "result": 0.4}, {"measurement": "nH", "setting": "κ (KOP)", "result": 0.5}, {"measurement": "nH", "setting": "α2B(h)", "result": 0.8}]}, {"smiles": "O=C(NC1CCN(CCc2ccccc2)CC1)c1ccco1", "note": "[N-(1-phenethylpiperidin-4-yl)furan-2-carboxamide]", "values": [{"measurement": "nH", "setting": "μ (MOP) (h) [1]", "result": 0.8}, {"measurement": "nH", "setting": "κ (KOP)", "result": 1.1}, {"measurement": "nH", "setting": "δ2 (DOP) (h)", "result": 1}, {"measurement": "nH", "setting": "α2B(h)", "result": 0.7}]}, {"smiles": "CCC(=O)NC1CCN(CCc2ccccc2)CC1", "note": "[Compound 1, N-(1-phenethylpiperidin-4-yl)propionamide]", "values": [{"measurement": "CYP3A4 mRNA expression", "setting": "CYP3A4 [3]", "result": "didn't cause a statistically significant change"}, {"measurement": "binding in mouse", "setting": "[4]", "result": "no binding at all could be detected"}, {"measurement": "CYP1A2 inhibition", "setting": "CYP1A2 [5]", "result": "No significant inhibition"}, {"measurement": "CYP2C9 inhibition", "setting": "CYP2C9", "result": "No significant inhibition"}, {"measurement": "bioavailability", "setting": "[6]", "result": "highly bioavailable"}, {"measurement": "permeability in the Caco-2 assay", "setting": "Caco-2 cells; 10 μM, pH gradient 6.8/7.4, 120 min", "result": "highly permeable in both directions"}, {"measurement": "efflux ratio", "setting": "Caco-2 cells; pH gradient (pH 6.8/7.4)", "result": 2.70}, {"measurement": "CYP2C8 inhibition", "setting": "CYP2C8", "result": "No significant inhibition"}, {"measurement": "IC50", "setting": "CYP2D6; 0 minute incubation", "result": "> 25", "unit": "µM"}, {"measurement": "time-dependent CYP2D6 inhibition", "setting": "CYP2D6; IC50 shift, 30 min pre-incubation ± NADPH", "result": "no evidence of time-dependent CYP2D6 inhibition"}, {"measurement": "CYP2D6 inhibition", "setting": "CYP2D6; 0 minute incubation", "result": "approximately 40%"}, {"measurement": "CYP2D6 inhibition", "setting": "CYP2D6; 30 minute plus NADPH incubation", "result": "approximately 40%"}, {"measurement": "CYP3A4 inhibition (testosterone)", "setting": "CYP3A4 [7]", "result": "No significant inhibition"}, {"measurement": "fraction unbound at 2 hr, 5 μM", "setting": "[8]", "result": 0.249}, {"measurement": "time in chamber associated with morphine administration (CPP)", "setting": "CD-1 mice [9]", "result": "significantly less time"}, {"measurement": "inhibition of L-DOPA induced dyskinesias", "setting": "[10]; Rodent in vivo model", "result": "significant inhibition"}, {"measurement": "effectiveness versus amantadine against L-dopa-induced dyskinesia", "setting": "[10]; comparison with amantadine, model not specified (Rodent and Primate models named)", "result": "significantly more effective than amantadine"}, {"measurement": "binding to plasma proteins", "setting": "plasma proteins", "result": "weak, or no noticeable binding"}, {"measurement": "inhibition of L-DOPA induced dyskinesias", "setting": "[11]", "result": "significant inhibition"}, {"measurement": "CYP3A4 inhibition (midazolam)", "setting": "CYP3A4 [12]", "result": "No significant inhibition"}, {"measurement": "IC50", "setting": "hERG potassium channel", "result": "> 25", "unit": "µM"}, {"measurement": "CYP2B6 mRNA expression", "setting": "CYP2B6 [13]", "result": "slight, yet statistically significant decrease"}, {"measurement": "toxicity", "setting": "animal models", "result": "virtually no toxicity"}, {"measurement": "CYP1A2 mRNA expression", "setting": "CYP1A2 [14]", "result": "didn't cause a statistically significant change"}, {"measurement": "permeability in the MDCK assay", "setting": "MDR1-MDCK cells; 10 μM, pH 7.4, 60 min", "result": "highly permeable"}, {"measurement": "efflux ratio", "setting": "MDR1-MDCK cells", "result": 1.48}, {"measurement": "analgesic property (tail flick, 52° C. water)", "setting": "CD-1 mice [15]", "result": "almost identical analgesic property compared to morphine alone"}, {"measurement": "CYP2B6 inhibition", "setting": "CYP2B6 [16]", "result": "No significant inhibition"}]}, {"smiles": "CCC(=O)NC1CCN(CCc2cccs2)CC1", "note": "[N-(1-(2-(thiophen-2-yl)ethyl)piperidin-4-yl)propionamide]", "values": [{"measurement": "nH", "setting": "μ (MOP) (h) [2]", "result": 0.6}, {"measurement": "nH", "setting": "κ (KOP)", "result": 0.6}, {"measurement": "nH", "setting": "δ2 (DOP) (h)", "result": 0.9}, {"measurement": "nH", "setting": "α2B(h)", "result": 1.2}]}]}
